Legend:
Assay in all cases: cells
Format in all cases: cell-based
CCRF-CEM = settings: Homo sapiens, 72 h; for CC50: read-out: LC50; for Emax: read-out: MI%
Experimental: (§1) The assay was contracted and carried out by WuXi AppTec (Shanghai) Co., Ltd. The tumor cell lines CCRF-CEM, HL-60, KG-1, MOLT-4, K562, MV4-11, THP-1, HEL92.1.7, NCI-H929, RPMI-8226, Jurkat, Z138, RL, HS445, HepG2, MCF-7, Bx-PC-3, HT29, MIA PaCa-2, and SW620 were seeded at cell densities of […] 10^3 cells/well in a 96-well plate the day before drug incubation. Then, the plates were incubated for 72 h with the different concentrations of compound to be tested. After the incubation period, 50 μL of MTS was added and the tumor cells were incubated for 4 h at 37 °C. The data were read and collected by a Spectra Max 340 absorbance microplate reader. The compounds were tested in duplicate with nine serial concentrations (3.16-fold titrations with 198 μM as the highest concentration), and the data were analyzed by XLfit software.

HL-60 = settings: Homo sapiens, HL-60, 72 h; for CC50: read-out: LC50; for Emax: read-out: MI%
Experimental: as §1

HepG2 = settings: Homo sapiens, HepG2, 72 h; for CC50: read-out: LC50; for Emax: read-out: MI%
Experimental: as §1

K562 = settings: Homo sapiens, K562, 72 h; for CC50: read-out: LC50; for Emax: read-out: MI%
Experimental: as §1

KG-1 = settings: Homo sapiens, KG-1, 72 h, read-out: LC50
Experimental: as §1

MCF-7 = settings: Homo sapiens, MCF7, 72 h; for CC50: read-out: LC50; for Emax: read-out: MI%
Experimental: as §1

MOLT-4 = settings: Homo sapiens, MOLT-4, 72 h; for CC50: read-out: LC50; for Emax: read-out: MI%
Experimental: as §1

| SMILES | CC50 (CCRF-CEM) | Emax (CCRF-CEM) | CC50 (HL-60) | Emax (HL-60) | CC50 (HepG2) | CC50 (K562) | Emax (K562) | CC50 (KG-1) | CC50 (MCF-7) | Emax (MCF-7) | CC50 (MOLT-4) | Emax (MOLT-4) | Emax (HepG2) |
| --- | --- | --- | --- | --- | --- | --- | --- | --- | --- | --- | --- | --- | --- |
| C[C@H](NP(=O)(Oc1ccccc1)O[C@@H]1C[C@@H](COP(=O)(N[C@H](C)C(=O)OCc2ccccc2)Oc2ccccc2)O[C@H]1n1cnc2c(N)ncnc21)C(=O)OCc1ccccc1 (stereo partly drawn) [Compound 5a] | 64.8 µM | 65% | 143 µM | 57% | 85.5 µM | 26.3 µM | 78% | 112 µM | 10.3 µM | 97% | 62.9 µM | 75% | – |
| C[C@H](NP(=O)(Oc1cccc2ccccc12)O[C@@H]1C[C@@H](COP(=O)(N[C@H](C)C(=O)OCc2ccccc2)Oc2cccc3ccccc23)O[C@H]1n1cnc2c(N)ncnc21)C(=O)OCc1ccccc1 (stereo partly drawn) [Compound 5b] | 27.1 µM | 99% | 78.6 µM | 99% | 30.2 µM | 25.4 µM | 87% | 66.3 µM | 5.05 µM | 99% | 14.8 µM | 100% | 90% |
| C[C@H](NP(=O)(Oc1ccccc1)O[C@@H]1C[C@@H](CO)O[C@H]1n1cnc2c(N)ncnc21)C(=O)OCc1ccccc1 (stereo partly drawn) [Compound 6a] | 17.6 µM | 99% | 31.1 µM | 80% | 83.1 µM | 26.9 µM | 89% | 79.4 µM | 5.06 µM | 94% | 18.6 µM | 100% | 55% |
| C[C@H](NP(=O)(N[C@@H](C)C(=O)OCc1ccccc1)OC[C@@H]1C[C@@H](O)[C@H](n2cnc3c(N)ncnc32)O1)C(=O)OCc1ccccc1 [Compound 9] | 7.03 µM | 100% | 16.5 µM | 100% | 157 µM | 24.3 µM | 97% | 34.1 µM | 13 µM | 97% | 3.52 µM | 100% | 55% |

— paper PMC9743095 (Journal of Medicinal Chemistry, 2022)
